Experimental data as given in patent publication US20210277015A1, “OGA INHIBITOR COMPOUNDS” (Janssen Pharmaceutica NV, priority 2018, published 2021).

Biological target: T1, recombinant human Meningioma Expressed Antigen 5 (MGEA5), also referred to as O-GlcNAcase (OGA) (Homo sapiens, UniProt O60502)
T1 construct: Full length OGA enzyme was purchased at OriGene (cat #TP322411); purchased OriGene TP322411
T1 sequence (O60502 1-916): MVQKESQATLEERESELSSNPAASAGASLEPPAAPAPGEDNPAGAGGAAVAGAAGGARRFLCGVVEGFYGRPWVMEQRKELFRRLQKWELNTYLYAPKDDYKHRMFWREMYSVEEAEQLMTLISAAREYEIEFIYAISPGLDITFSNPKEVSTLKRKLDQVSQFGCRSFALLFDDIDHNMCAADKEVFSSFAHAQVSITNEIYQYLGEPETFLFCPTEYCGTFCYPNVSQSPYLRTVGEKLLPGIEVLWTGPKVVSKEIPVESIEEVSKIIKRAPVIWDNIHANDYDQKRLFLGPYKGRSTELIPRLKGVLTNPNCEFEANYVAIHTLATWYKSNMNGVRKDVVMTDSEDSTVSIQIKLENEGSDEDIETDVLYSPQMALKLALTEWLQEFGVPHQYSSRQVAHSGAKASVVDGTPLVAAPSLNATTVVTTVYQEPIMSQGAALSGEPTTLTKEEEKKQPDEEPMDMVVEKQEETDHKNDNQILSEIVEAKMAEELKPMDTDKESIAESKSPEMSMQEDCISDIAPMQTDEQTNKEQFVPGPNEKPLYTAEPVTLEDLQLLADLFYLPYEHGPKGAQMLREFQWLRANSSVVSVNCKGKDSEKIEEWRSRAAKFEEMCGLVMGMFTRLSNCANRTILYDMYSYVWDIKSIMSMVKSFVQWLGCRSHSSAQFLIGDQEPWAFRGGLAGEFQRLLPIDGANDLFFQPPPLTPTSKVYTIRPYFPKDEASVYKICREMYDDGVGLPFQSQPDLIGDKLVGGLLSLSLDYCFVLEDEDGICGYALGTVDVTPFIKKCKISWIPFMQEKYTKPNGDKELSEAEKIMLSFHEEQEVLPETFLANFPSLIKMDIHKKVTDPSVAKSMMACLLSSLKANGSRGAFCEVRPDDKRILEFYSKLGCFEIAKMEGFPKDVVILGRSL
Assay: OGA biochemical assay (inhibition of FM-GlcNAc hydrolysis, fluorescence)
Settings: FM-GlcNAc substrate; for IC50: 6 h at room temperature, read-out: Enzymatic hOGA, pIC50 (converted); for Enzymatic Emax (%) / Emax: maximal effect; for Emax: read-out: Enzymatic Emax (%)
Source text: The assay is based on the inhibition of the hydrolysis of fluorescein mono-β-D-N-Acetyl-Glucosamine (FM-GlcNAc) (Mariappa et al. 2015, Biochem J 470:255) by the recombinant human Meningioma Expressed Antigen 5 (MGEA5), also referred to as O-GlcNAcase (OGA). The hydrolysis FM-GlcNAc (Marker Gene technologies, cat #M1485) results in the formation of β-D-N-glucosamineacetate and fluorescein. The fluorescence of the latter can be measured at excitation wavelength 485 nm and emission wavelength 538 nm. An increase in enzyme activity results in an increase in fluorescence signal. Full length OGA enzyme was purchased at OriGene (cat #TP322411). The enzyme was stored in 25 mM Tris.HCl, pH 7.3, 100 mM glycine, 10% glycerol at −20° C. Thiamet G and GlcNAcStatin were tested as reference compounds (Yuzwa et al. 2008 Nature Chemical Biology 4:483; Yuzwa et al. 2012 Nature Chemical Biology 8:393). The assay was performed in 200 mM Citrate/phosphate buffer supplemented with 0.005% Tween-20. 35.6 g Na2HPO4 2 H2O (Sigma, #C0759) were dissolved in 1 L water to obtain a 200 mM solution. 19.2 g citric acid (Merck, #1.06580) was dissolved in 1 L water to obtain a 100 mM solution. pH of the sodium phosphate solution was adjusted with the citric acid solution to 7.2. The buffer to stop the reaction consists of a 500 mM Carbonate buffer, pH 11.0. 734 mg FM-GlcNAc were dissolved in 5.48 mL DMSO to obtain a 250 mM solution and was stored at −20° C. OGA was used at a 2 nM concentration and FM-GlcNAc at a 100 uM final concentration. Dilutions were prepared in assay buffer.
50 nl of a compound dissolved in DMSO was dispensed on Black Proxiplate™ 384 Plus Assay plates (Perkin Elmer, #6008269) and 3 μl fl-OGA enzyme mix added subsequently. Plates were pre-incubated for 60 min at room temperature and then 2 μl FM-GlcNAc substrate mix added. […] Plates were briefly centrifuged for 1 min at 1000 rpm and incubate at room temperature for 6 h. To stop the reaction 5 μl STOP buffer were added and plates centrifuge again 1 min at 1000 rpm. Fluorescence was quantified in the Thermo Scientific Fluoroskan Ascent or the PerkinElmer EnVision with excitation wavelength 485 nm and emission wavelength 538 nm.
For analysis a best-fit curve is fitted by a minimum sum of squares method. From this an IC50 value and Hill coefficient was obtained. High control (no inhibitor) and low control (saturating concentrations of standard inhibitor) were used to define the minimum and maximum values.

IC50 [nM] | Enzymatic Emax (%) | Emax [%] | SMILES
6310 | – | 63 | COc1cc(C[C@]2(C)CCN([C@H](C)c3ccc4c(n3)OCCO4)C2)cc(C)n1 (single isomer, unassigned) [Product 92]
20 | – | 102 | Cc1cc(C[C@H]2CCN(C(C)c3cc4c(cc3F)OCCO4)C2)cc(C)n1 (stereo partly drawn) [Product 30]
1000 | – | 93 | COc1cc(C[C@@H]2CCN([C@H](C)c3cc4c(cc3F)OCCO4)C2)cc(C)n1 [Product 42]
7940 | – | 55 | COc1cc(C[C@]2(C)CCN([C@@H](C)c3ccc4c(n3)OCCO4)C2)cc(C)n1 (single isomer, unassigned) [Product 93]
100 | – | 103 | COc1cc(C[C@H]2CCN(C(C)c3ccc4c(n3)OCCO4)C2)cc(C(F)(F)F)n1 (stereo partly drawn) [Product 4]
2000 | – | 85 | Cc1cc(C[C@H]2CCN(C(C)c3ccc4c(c3)OCCN4C)C2)cc(C)n1 (stereo partly drawn) [Product 1]
631 | – | 94 | CC(c1ccc2c(n1)OCCO2)N1CC[C@H](Cc2ncc(F)cc2F)C1 (stereo partly drawn) [Product 21]
5010 | 67 | – | CC(c1cc2c(cc1F)OCCO2)N1CC[C@H](Cc2ncc(F)cc2F)C1 (single isomer, unassigned) [Product 28]
1000 | – | 93 | COc1cc(C[C@@]2(C)CCN([C@H](C)c3ccc4c(n3)OCCO4)C2)cc(C)n1 (single isomer, unassigned) [Product 94]
> 10000 | 35 | – | Cc1cnc(C[C@H]2CCN(C(C)c3ccc4c(n3)OCCO4)C2)c(C)n1 (single isomer, unassigned) [Product 26]
100 | – | 100 | COc1cc(C[C@@H]2CCN(C(C)c3ccc4c(n3)OCCO4)C2)cc(C)n1 (mixture of isomers) [Product 89]
398 | – | 97 | CC(c1ccc2c(n1)OCCO2)N1CC[C@H](Cc2ncc(F)cc2F)C1 (single isomer, unassigned) [Product 23]
631 | – | 96 | Cc1cc(C[C@H]2CCN([C@H](C)c3cc4c(cc3F)OCCO4)C2)cc(C)n1 [Product 31]
200 | 99 | – | COc1cc(C[C@H]2CCN(C(C)c3nc4c(cc3F)CCO4)C2)cc(C)n1 (single isomer, unassigned) [Product 85]
63.1 | – | 101 | Cc1cc(C[C@@H]2CCN(C(C)c3ccc4c(n3)OCCO4)C2)cc(C)n1 (mixture of isomers) [Product 78]
6170 | – | 61 | Cc1cc(C[C@H]2CCN(Cc3ccc4c(c3)OCCN4C)C2)cc(C)n1 [Product 2]
794 | – | 94 | Cc1cc(OCC2(C)CCN(C(C)c3ccc4c(n3)OCCO4)C2)cc(C)n1 (stereo not drawn) [Product 77]
> 10000 | – | 32 | C[C@H](c1ccc2c(n1)OCCO2)N1CC[C@H](Cc2ncc(F)cc2F)C1 (single isomer, unassigned) [Product 22]
398 | – | 99 | COc1cc(O[C@H]2CCN(C(C)c3ccc4c(n3)OCCO4)C2)cc(C)n1 (single isomer, unassigned) [Product 64]
7940 | – | 58 | COc1cc(C[C@H]2CCN([C@H](C)c3cnc4c(c3)C(=O)N(C)CC4)C2)cc(C)n1 [Product 34]

The remaining lines, values behind:

SMILES | IC50 [nM] | Enzymatic Emax (%) | Emax [%]
COc1cc(C[C@H]2CCN(C(C)c3ccc4c(n3)OCCC4)C2)cc(C)n1 (single isomer, unassigned) [Product 88] | > 10000 | 38 | –
Cc1cc(O[C@H]2CCN(C(C)c3ccc4c(n3)OCCO4)C2)cc(C)n1 (mixture of isomers) [Product 70] | 1260 | – | 94
Cc1cnc(C[C@H]2CCN(C(C)c3ccc4c(n3)OCCO4)C2)c(C)n1 (stereo partly drawn) [Product 24] | 251 | – | 101
COc1cc(C[C@H]2CCN(C(C)c3ccc4c(n3)OCCC4)C2)cc(C)n1 (single isomer, unassigned) [Product 87] | 126 | 99 | –
COc1cc(CC2(C)CCN(C(C)c3ccc4c(n3)OCCO4)C2)cc(C)n1 (mixture of isomers) [Product 91] | 158 | – | 100
COc1cc(C[C@H]2CCN(C(C)c3cnc4c(c3)C(=O)N(C)CC4)C2)cc(C)n1 (stereo partly drawn) [Product 33] | 126 | – | 102
COc1cc(C[C@H]2CCN([C@H](C)c3cc4c(cc3F)NCCO4)C2)cc(C)n1 (racemic) [Product 81] | 794 | – | 92
COc1cc(O[C@H]2CCN(C(C)c3ccc4c(n3)OCCO4)C2)cc(C)n1 (stereo partly drawn) [Product 63] | 1000 | – | 95
Cc1cc(C[C@@H]2CCN([C@H](C)c3cc4c(cc3F)OCCO4)C2)cc(C)n1 [Product 44] | 251 | – | 99
Cc1cc(C[C@H]2CCN(C(C)c3ccc4c(n3)OCCO4)C2)cc(C)n1 (stereo partly drawn) [Product 12] | 158 | – | 101
CC(c1cc2c(cc1F)OCCO2)N1CC[C@H](Cc2ncc(F)cc2F)C1 (stereo partly drawn) [Product 27] | 126 | – | 102
Cc1cnc(C[C@H]2CCN(C(C)c3cc4c(cc3F)OCCO4)C2)c(C)n1 (single isomer, unassigned) [Product 98] | 31.6 | 103 | –
Cc1cnc(C[C@H]2CCN(C(C)c3cc4c(cc3F)OCCO4)C2)c(C)n1 (single isomer, unassigned) [Product 97] | > 10000 | 37 | –
Cc1cnc(C[C@H]2CCN(C(C)c3cc4c(cc3F)OCCO4)C2)c(C)n1 (mixture of isomers) [Product 96] | 63.1 | – | 101
COc1cc(O[C@@H]2CCN(C(C)c3ccc4c(n3)OCCO4)C2)cc(C)n1 (mixture of isomers) [Product 76] | 1580 | – | 84
Cc1cc(OC[C@@H]2CCN(C(C)c3ccc4c(n3)OCCO4)C2)cc(C)n1 (stereo partly drawn) [Product 46] | 251 | – | 97
Cc1cc(C2CCN(C(C)c3ccc4c(n3)OCCO4)C2)cc(C)n1 (stereo not drawn) [Product 3] | 501 | – | 99
Cc1cc(C[C@H]2CCN([C@H](C)c3ccc4c(c3)OCC4)C2)cc(C)n1 (single isomer, unassigned) [Product 13] | 1000 | – | 91
Cc1cnc(C[C@H]2CCN(C(C)c3ccc4c(n3)OCCO4)C2)c(C)n1 (single isomer, unassigned) [Product 25] | 158 | 100 | –
